Experimental findings from US4210581A, “Organic compounds” (Sandoz Ltd., priority 1975, dated 1980) are described below.

Data set [1] has as its system skin grafts in H-2 histoincompatible mice. Put plainly: Skin transplantation (allograft) test. The data set is classed as in vivo. The conditions noted are these: 100 to 200 mg/kg per os.
Data set [2] can be described thus: Solubility at room temperature. The data set is classed as physicochemical.
The subject of data set [3] is Freund adjuvant arthritis swellings. Put plainly: Freund adjuvant arthritis latent period test. The data set is classed as in vivo. To be noted: rats, p.o., about 1 to about 10 mg/kg.
Data set [4] concerns paralysis induced by experimentally induced nerve tissue damages. Put plainly: Experimental allergic encephalomyelitis (EAE) test. The data set is classed as in vivo. To be noted: rats, between 50 and 100 mg/kg/day.
In data set [5] the test system is oxazolone skin hypersensitivity swelling. Put plainly: Oxazolone skin hypersensitivity reaction. The data set is classed as in vivo. The conditions noted are these: mice, doses of 70 to 200 mg/kg.
Data set [6] deals with hemolytic plaque-forming cells. Put plainly: Jerne test (local hemolysis in gel). The data set is classed as in vivo. To be noted: mice, 50 to 200 mg/kg per os. The source says: (i) in the Jerne test the effect of the substance on local hemolysis in gel is observed.
Data set [7] relates to antibodies formed against sheep erythrocytes. Put plainly: Hemagglutination test (HAT). The data set is classed as in vivo. To be noted: mice, 100 to 200 mg/kg per os. Here is the method:
(ii) in the hemagglutination test (HAT) in mice a stimulation of the antibodies formed against sheep erythrocytes is obtained at a dose of from 100 to 200 mg/kg per os. animal body weight;

The subject of data set [8] is Aspergillus Niger. Put plainly: Activity against Aspergillus Niger. The data set is classed as cell-based. The text has this: Cyclosporin C may be isolated by chromatography as a compound active against Aspergillus Niger and having greater polarity than Cyclosporins A and B (designated S7481/F-1 and S7481/F-2 in the above mentioned D.O.S.).

Consider dihydrocyclosporin C, for which the “prolongation in the period of survival of skin grafts” value in data set [1] is “significant prolongation”. In addition, the “solubility in organic solvents” value in data set [2] (benzene, dichloromethane, chloroform, ethyl acetate, acetone, ethanol and methanol) is given as “easily soluble”. Moreover, in data set [2] (water), the solubility in water entry is listed as “difficulty soluble”. Moreover, the inhibition of swellings result in data set [3] is recorded as “inhibition of swellings”. In data set [4], the incidence of paralysis entry was “reduced significantly”. In data set [5], the inhibition of swelling result is “significant and pronounced inhibition”. For the same compound, the “stimulation of hemolytic plaque-forming cells (immunoglobulin M and G2a antibodies)” value in data set [6] was “significant stimulation”. The “stimulation of the antibodies formed against sheep erythrocytes” value in data set [7] is on record as “stimulation”.
For `C/C=C/C[C@@H](C)[C@@H](O)[C@H]1C(=O)N[C@@H]([C@@H](C)O)C(=O)N(C)CC(=O)N(C)[C@@H](CC(C)C)C(=O)N[C@@H](C(C)C)C(=O)N(C)[C@@H](CC(C)C)C(=O)N[C@@H](C)C(=O)N[C@H](C)C(=O)N(C)[C@@H](CC(C)C)C(=O)N(C)[C@@H](CC(C)C)C(=O)N(C)[C@@H](C(C)C)C(=O)N1C` [Cyclosporin C, cyclosporin C], the “activity against Aspergillus Niger” value in data set [8] is listed as “active”.
